Experimental data published in patent US20120083473A1, “TREATMENT OF CONDITIONS BY TOLL-LIKE RECEPTOR MODULATORS” (priority 2010, published 2012).
“Also recorded” adds a separate entry of the source.

Columns and labels:
[1] = system: rat collagen-induced arthritis (CIA) model; test: Rat collagen-induced arthritis (CIA) model; type: in vivo; conditions: for day of definite disease onset / bone erosion score / cumulative arthritis score / cartilage erosion score / joint inflammation score / proteoglycan loss score: mean±SD; for cartilage erosion score / joint inflammation score / proteoglycan loss score: scale 0-3
Procedure: Collagen-induced arthritis was induced in 9 weeks old female Lewis rats using a two-steps immunization protocol. On day 0, rats were immunized by intradermal injection of approximately 1 ml of 1 mg/ml bovine type II collagen (Chondrex) emulsified in Incomplete Freund's adjuvant (Difco Laboratories) at several sites at the back. Arthritis development was accelerated by an intradermal booster immunization in the back and tail-base with 100 µg bovine type II collagen (Chondrex) in IFA (Difco Laboratories) at day 7. For immunization, rats were anesthetized by inhalation of 3-4% isoflurane in a mixture of oxygen and nitrous oxide.
Rats were evaluated 6 times per week (once during weekends) for arthritis severity using a macroscopic scoring system of 0-4 for each paw as detailed below:
0=no signs of arthritis 0.5=unloading of the paw and/or light redness of ankle joint 1=redness and mild swelling of the ankle joint 2=redness and swelling of paw 3=severe redness and swelling of entire paw including digits 4=maximally swollen paw, often involvement of multiple joints and extending toward knee joint.
The total clinical score of an individual rat is defined as the sum of the clinical scores of all four paws for each day. At the end of the study, the cumulative arthritis score was calculated for each rat. This cumulative arthritis score is defined as the sum of the total clinical scores obtained from day 0 till day 24.
The day of disease is defined as the first day of three consecutive days on which a total clinical arthritis score of more than 0 was observed.
The swelling of the hind paws was measured during weekdays with a laser scan micrometer (Mitutoyo, LSM-503S/6200). At the end of the study, the cumulative paw swelling was calculated for each rat as follows: a baseline value was determined by averaging the paw thickness values of day 0-9 when no signs of arthritis were visible in the vehicle-treated group. Next, increase in paw thickness was calculated by subtracting the baseline value from the paw thickness values obtained on day 10-24 (delta value). Cumulative paw swelling is defined as the sum of the delta paw thickness values from day 10 till 24.
Left ankle joints were decalcified in a solution of 10% EDTA in distilled water, pH 7.4 for at least two months. After a wash in running tap water for 24 hours, the joints were embedded in paraffin and cut into 5 μm sections.
Joint inflammation was scored on Haematoxylin Phloxine Saffron (HPS) stained sections. The inflammation score is based on the amount of inflammatory cells infiltrated into the joint on a scale of 0-3:
0=no inflammation 1=inflammatory cells in muscle layer (surrounding tissue) 2=infiltration of inflammatory cells in the joint 3=severe infiltration of inflammatory cells in the joint
Cartilage erosion was also scored on HPS stained sections. Erosion was scored in three compartments between tarsal bones and the tibia bone as the disappearance of cartilage or chondrocyte death on a scale of 0-3:
0=no erosion 1=erosion in 1 joint compartment 2=erosion in 2 joint compartments 3=erosion in 3 joint compartments
Proteoglycan (PG) loss was scored on Saffranin 0/Fast green-stained sections on a scale of 0-3, indicating increasing loss of staining from the cartilage tissue:
0=no PG loss 1=1-33% loss of PG staining 2=34-66% loss of PG staining 3=67%-complete loss of PG staining
Bone erosion was scored on HPS stained sections. Erosion was scored at four different locations in two compartments as the number of osteoclasts per field (average value is given in Appendix 8): […]

human monocytes (Mo) = test: Cytokine/chemokine secretion by TMX-tolerant human monocytes (ELISA); type: cell-based
Procedure: Cell Culture and treatments. Monocytes (Mo) were obtained from buffycoats collected from healthy donors as previously described (Porta C et al, PNAS 2009). Cells were incubated in RPMI 1640 medium, containing 10% fetal bovine serum, 2 mM glutamine and 100 U/ml of penicillin-streptomycin. The concentrations for the different treatments were as follows: LPS (100 ng/ml) (Lipopolysaccharide from Salmonella Abortus Equi S-form, Alexis), CpG (1 microg/ml), Pam3CSK (2 microg/ml), Poly I:C (10 microg/ml), Loxorubine (100 microM), flagellin (100 ng/ml). To induce TMX tolerance, cells were incubated in the presence of TMX (10 microM) for 20 hrs, washed and maintained in RPMI medium for 2 hrs and then re-challenged with TMX (10 microM) for 4 hrs. To induce TMX-tolerization (T/M) cells were treated with TMX for 20 hrs, washed and then maintained in medium for additional 6 hours, without TMX re-challenge. To induce M1-activation cells were incubated in medium for 20 hrs, washed, left in medium for 2 hrs and finally stimulated with TMX (10 microM) for 4 hrs. Control cells (M/M) were cultured in medium for the entire period of the experiment. For gene expression analysis, total RNA was extracted from TMX treated and untreated cells with trizol (Invitrogen), according to the manufacturer's instructions. To analyze cytokines and chemokines production supernatants were collected 24 hrs after the second challenge with TMX.
ELISA. Cell-free supernatants were tested by ELISA for the indicated cytokines/chemokines. Human TNF-alpha, IL-6, IL-1beta, IL-10, CCL17 and CCL22 ELISA kits were purchased from R&D Systems (Minneapolis, Minn.).

[2] = TMX-tolerized cells re-challenged with TMX or 1V209

For `COCCOc1nc(N)c2nc(O)n(Cc3ccc(C(=O)NCCOCCOCCOCCOCCOCCOCCn4cc(CCC(=O)O)nn4)cc3)c2n1` [Compound 2], the “day on which disease incidence of 100% was reached” value (from here on “day … of 100% was reached”) ([1]; 1.6 mg/kg) was 11 days, the “day of definite disease onset” value ([1]; 1.6 mg/kg i.p. once daily from day 10) was 10.3 ± 0.5 days and the bone erosion score ([1]; 1.6 mg/kg) was 0.63±0.17. For the same molecule, the cumulative arthritis score ([1]; 1.6 mg/kg) was 77.3±11.9 a.u, the cartilage erosion score ([1]; 1.6 mg/kg) was 2.09±0.65 and the joint inflammation score ([1]; 1.6 mg/kg) was 2.69±0.37. The proteoglycan loss score ([1]; 1.6 mg/kg) was 2.41±0.40, the “day … of 100% was reached” value ([1]; 3.2 mg/kg) was 13 days and the “day of definite disease onset” value ([1]; 3.2 mg/kg i.p. once daily from day 10) was 10.4 ± 1.1 days. The bone erosion score ([1]; 3.2 mg/kg) was 0.62±0.09, the cumulative arthritis score ([1]; 3.2 mg/kg) was 83.3±12.2 a.u and the cartilage erosion score ([1]; 3.2 mg/kg) was 2.34±0.68. The joint inflammation score ([1]; 3.2 mg/kg) was 2.66±0.33, the proteoglycan loss score ([1]; 3.2 mg/kg) was 2.53±0.21 and the “day … of 100% was reached” value ([1]; 6.3 mg/kg) was 11 days. The “day of definite disease onset” value ([1]; 6.3 mg/kg i.p. once daily from day 10) was 10.4 ± 0.5 days, the bone erosion score ([1]; 6.3 mg/kg) was 0.69±0.13 and the cumulative arthritis score ([1]; 6.3 mg/kg) was 81.1±14.6 a.u. For the same molecule, the cartilage erosion score ([1]; 6.3 mg/kg) was 2.06±0.65, the joint inflammation score ([1]; 6.3 mg/kg) was 2.69±0.32 and the proteoglycan loss score ([1]; 6.3 mg/kg) was 2.47±0.34. The “day … of 100% was reached” value ([1]; 12.6 mg/kg) was 15 days, the “day of definite disease onset” value ([1]; 12.6 mg/kg i.p. once daily from day 10) was 11.5 ± 2.0 days and the “total clinical arthritis score versus vehicle, end of the study” value ([1]; 12.6 mg/kg, day 22, 23 and 24 (p=0.036, p=0.017, p=0.044)) was “statistically exceeded that of the vehicle group”. The joint inflammation score ([1]; 12.6 mg/kg, left ankle histology) was 2.41±0.42, the cumulative arthritis score ([1]; 12.6 mg/kg, day 0 till day 24) was 77.6±19.9 a.u and the bone erosion score ([1]; 12.6 mg/kg, osteoclast score 0-3) was 0.56±0.14. For the same molecule, the “cumulative hind paw swelling versus vehicle” value ([1]; 12.6 mg/kg, p=0.003 left, p=0.004 right hind paw) was “significantly reduced; also recorded: reduction”, the “proteoglycan loss versus vehicle” value ([1]; 12.6 mg/kg, p=0.026) was “significantly diminished; also recorded: significant suppression” and the cartilage erosion score ([1]; 12.6 mg/kg) was 1.81±0.91. For the same molecule, the proteoglycan loss score ([1]; 12.6 mg/kg) was 1.97±0.59, the “clinical signs of arthritis / total clinical arthritis score versus vehicle, initial phase” value ([1]; 12.6 mg/kg, significant on day 13 and 16 (p=0.018, p=0.011)) was “initially suppressed” and the “development of clinical signs of arthritis over time” value ([1]; 6.3, 3.2 and 1.6 mg/kg groups) was “comparable to the vehicle group”. The “arthritis development compared to the vehicle group” value ([1]; 6.3, 3.2 or 1.6 mg/kg) was “did not significantly reduce”, the paw thickness ([1]; Compound 2 12.6, 6.3, 3.2, 1.6 mg/kg) was “dose-dependent reduction” and the disease incidence ([1]; all Compound 2 groups (12.6, 6.3, 3.2, 1.6 mg/kg), till the end of the study) was 100%. For the same molecule, the body weight ([1]; different concentrations Compound 2) was “decreased gradually after disease onset, which was similar to the vehicle group”, the arthritis development ([1]; highest dose level (12.6 mg/kg), therapeutic i.p. from day 10) was “limited suppression” and the “hind paw swelling versus vehicle” value ([1]; other Compound 2 dose groups (6.3, 3.2, 1.6 mg/kg)) was “no significant differences”. The “levels of IL-10 in the supernatant of TMX-tolerant monocytes” value (human monocytes (Mo)) was “decreased”, the “secretion of selected M2 markers (CCL17 and CCL22)” value (human monocytes (Mo); TMX-tolerized Mo from 2 out of 4 healthy donors) was “significantly augmented” and the “CCL17 and CCL22 secretion” value (human monocytes (Mo); [2]) was “induction”. The “TNFalpha and IL-6 secretion” value (human monocytes (Mo); [2]) was “inhibition”, the “IL-10 production by Compound 2-conditioned cells” value (human monocytes (Mo); as stated in comparison of human and mouse data) was “increased” and the “TNF and IL-6 secretion” value (human monocytes (Mo); cells tolerized with TMX and re-challenged with TLR agonists, except for LPS) was “decreased”. For the same molecule, the “IL-1beta production in TMX-tolerized cells” value (human monocytes (Mo); re-challenged with TLR agonists) was “all TLR agonists promote IL-1beta production”.
